Patent publication US10435399B2, “HDAC6 inhibitory heterocyclic compound” (TAKEDA PHARMACEUTICAL COMPANY LIMITED, priority 2017, dated 2019)

target: T1, HDAC6 enzyme (Homo sapiens, UniProt Q9UBN7); experiment: HDAC6 enzyme inhibitory activity (HDAC-Glo I/II Assay kit); format: biochemical; conditions: 10 μM; wells without enzyme = 100% inhibition
T1 construct: transducing full length HDAC6 gene into Sf-9 insect cells; GST; purchased SignalChem; host or cells: Sf-9 insect cells
T1 sequence (Q9UBN7 1-1215): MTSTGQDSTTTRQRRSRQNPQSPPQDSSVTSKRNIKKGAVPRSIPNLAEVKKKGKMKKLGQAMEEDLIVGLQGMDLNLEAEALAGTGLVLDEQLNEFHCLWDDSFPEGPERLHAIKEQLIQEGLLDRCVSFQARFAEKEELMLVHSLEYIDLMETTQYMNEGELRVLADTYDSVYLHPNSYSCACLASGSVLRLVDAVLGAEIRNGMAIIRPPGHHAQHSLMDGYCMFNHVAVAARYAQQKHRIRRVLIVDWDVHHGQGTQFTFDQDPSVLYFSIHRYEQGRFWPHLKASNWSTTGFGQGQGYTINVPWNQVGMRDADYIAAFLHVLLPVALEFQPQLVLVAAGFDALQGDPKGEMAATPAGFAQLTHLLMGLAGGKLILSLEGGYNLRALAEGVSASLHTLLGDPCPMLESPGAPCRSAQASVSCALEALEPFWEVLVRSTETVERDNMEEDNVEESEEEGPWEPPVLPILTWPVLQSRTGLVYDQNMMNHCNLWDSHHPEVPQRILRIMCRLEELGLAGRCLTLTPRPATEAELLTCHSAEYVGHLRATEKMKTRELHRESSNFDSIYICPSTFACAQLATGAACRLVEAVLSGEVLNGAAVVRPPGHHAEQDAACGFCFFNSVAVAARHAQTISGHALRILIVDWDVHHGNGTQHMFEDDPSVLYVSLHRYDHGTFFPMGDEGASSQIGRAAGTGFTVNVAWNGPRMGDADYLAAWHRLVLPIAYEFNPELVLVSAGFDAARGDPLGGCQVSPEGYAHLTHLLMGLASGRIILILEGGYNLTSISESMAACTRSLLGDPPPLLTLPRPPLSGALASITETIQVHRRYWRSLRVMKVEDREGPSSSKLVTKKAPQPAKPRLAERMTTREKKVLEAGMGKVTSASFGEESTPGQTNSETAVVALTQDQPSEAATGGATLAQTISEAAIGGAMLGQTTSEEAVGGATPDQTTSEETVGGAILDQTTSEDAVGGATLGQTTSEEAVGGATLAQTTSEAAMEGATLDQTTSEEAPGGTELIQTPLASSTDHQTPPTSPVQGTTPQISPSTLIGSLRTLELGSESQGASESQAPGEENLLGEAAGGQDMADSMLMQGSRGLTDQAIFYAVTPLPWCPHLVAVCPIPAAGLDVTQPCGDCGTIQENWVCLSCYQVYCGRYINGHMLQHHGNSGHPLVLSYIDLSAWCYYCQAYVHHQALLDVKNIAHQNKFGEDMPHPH
Procedure, shortened: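 Test compound is preincubated 60 min at RT with full-length insect-cell HDAC6 in Tris-HCl pH 7.5 with 135 mM NaCl and 1 mM MgCl2. A 20 min room-temperature HDAC-Glo reaction follows, with luminescent read-out.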

| Compound | HDAC6 inhibitory rate (%) (10 μM) |
| --- | --- |
| O=C1c2cc(-c3nnc(C(F)F)o3)ccc2CN1N1CCC(F)(F)CC1c1ccccc1 (stereo not drawn) [Example 554, 6-(5-(difluoromethyl)-1,3,4-oxadiazol-2-yl)-2-(4,4-difluoro-2-phenylpiperidin-1-yl)isoindolin-1-one (optical isomer)] | 100 |
| O=C1c2cc(-c3nnc(C(F)F)o3)ccc2CN1N1CCC(F)(F)CC1c1ccccc1 (stereo not drawn) [Example 555, 6-(5-(difluoromethyl)-1,3,4-oxadiazol-2-yl)-2-(4,4-difluoro-2-phenylpiperidin-1-yl)isoindolin-1-one (optical isomer)] | 100 |
| O=C1c2cc(-c3nnc(C(F)F)o3)ccc2CN1N1CCC(F)(F)CC1c1cccc(F)c1 (stereo not drawn) [Example 562, 2-(4,4-difluoro-2-(3-fluorophenyl)piperidin-1-yl)-6-(5-(difluoromethyl)-1,3,4-oxadiazol-2-yl)isoindolin-1-one (optical isomer)] | 99 |

same assay, conditions: 10 μM; wells without enzyme = 100% inhibition; read-out: HDAC6 inhibitory rate (%) (10 μM)

| Compound | inhibition at 10 µM [%] |
| --- | --- |
| O=C1c2cc(-c3nnc(C(F)F)o3)ccc2CN1c1ccc(F)cc1C1CCC(NC(=O)C(F)(F)C(F)(F)F)CC1 (stereo not drawn) [Example 534, N-(4-(2-(6-(5-(difluoromethyl)-1,3,4-oxadiazol-2-yl)-1-oxo-1,3-dihydro-2H-isoindol-2-yl)-5-fluorophenyl)cyclohexyl)-2,2,3,3,3-pentafluoropropanamide] | 100 |
| O=C1c2cc(-c3nnc(C(F)F)o3)ccc2CN1[C@@H]1CCCC[C@H]1n1nnc2ccccc21 [Example 536, 2-((1R,2R)-2-(1H-benzotriazol-1-yl)cyclohexyl)-6-(5-(difluoromethyl)-1,3,4-oxadiazol-2-yl)isoindolin-1-one] | 100 |
| O=C1c2cc(-c3nnc(C(F)F)o3)cnc2CN1[C@@H]1CCCC[C@H]1n1nnc2ccccc21 [Example 537, 6-((1R,2R)-2-(1H-benzotriazol-1-yl)cyclohexyl)-3-(5-(difluoromethyl)-1,3,4-oxadiazol-2-yl)-6,7-dihydro-5H-pyrrolo[3,4-b]pyridin-5-one] | 100 |
| O=C1c2cc(-c3nnc(C(F)F)o3)ccc2CN1[C@@H]1CCCC[C@H]1c1nnc2ccccn12 [Example 547, 6-(5-(difluoromethyl)-1,3,4-oxadiazol-2-yl)-2-((1R,2R)-2-([1,2,4]triazolo[4,3-a]pyridin-3-yl)cyclohexyl)isoindolin-1-one] | 100 |
| Cn1cc(C2CCN(CC(F)(F)C(F)(F)F)CC2)c(N2Cc3ccc(-c4nnc(C(F)F)o4)cc3C2=O)n1 [Example 550, 6-(5-(difluoromethyl)-1,3,4-oxadiazol-2-yl)-2-(1-methyl-4-(1-(2,2,3,3,3-pentafluoropropyl)piperidin-4-yl)-1H-pyrazol-3-yl)isoindolin-1-one] | 99 |
| O=C1c2cc(-c3nnc(C(F)F)o3)ccc2CN1N1CCCC1c1cccc(F)c1 (stereo not drawn) [Example 553, 6-(5-(difluoromethyl)-1,3,4-oxadiazol-2-yl)-2-(2-(3-fluorophenyl)pyrrolidin-1-yl)isoindolin-1-one] | 100 |
| Cn1cc(C2CCC(NCC(F)(F)C(F)(F)F)CC2)c(N2Cc3ccc(-c4nnc(C(F)F)o4)cc3C2=O)n1 (stereo not drawn) [Example 557, 6-(5-(difluoromethyl)-1,3,4-oxadiazol-2-yl)-2-(1-methyl-4-(4-((2,2,3,3,3-pentafluoropropyl)amino)cyclohexyl)-1H-pyrazol-3-yl)isoindolin-1-one] | 99 |
| O=C1c2cc(-c3nnc(C(F)F)o3)ccc2CN1N1CCC(F)(F)CC1c1cccc(F)c1 (stereo not drawn) [Example 560, 2-(4,4-difluoro-2-(3-fluorophenyl)piperidin-1-yl)-6-(5-(difluoromethyl)-1,3,4-oxadiazol-2-yl)isoindolin-1-one] | 100 |
| O=C1c2cc(-c3nnc(C(F)F)o3)ccc2CN1[C@@H]1CCOC[C@H]1n1nnc2cc(Cl)ccc21 [Example 563, 2-((3S,4R)-3-(5-chloro-1H-benzotriazol-1-yl)tetrahydro-2H-pyran-4-yl)-6-(5-(difluoromethyl)-1,3,4-oxadiazol-2-yl)isoindolin-1-one] | 100 |
